Reference: ChEMBL document CHEMBL4837226, “Discovery of pyrrole derivatives for the treatment of glioblastoma and chronic myeloid leukemia” (Eur J Med Chem, 2021)
pIC50: −log10 of the molar value. Active and inactive are the calls of the source. The rule behind the calls is not given here.

Tests used:
KBM5 [1] = assay: Cytotoxicity against imatinib mesylate resistant wild-type human KBM5 cells expressing T315I mutant assessed as cell growth inhibition measured after 48 hrs by MTT assay; format: functional, cell-based; conditions: KBM5, 48 h
[2] = target: T1, DNA topoisomerase 1 (Homo sapiens) (UniProt P11387); assay: Inhibition of human recombinant topoisomerase I using supercoiled pHOT1 plasmid DNA as substrate at 10 to 100 uM measured after 1 hr by agarose gel electrophoresis analysis; conditions: dose 10-100 µM
T1 sequence (whole entry): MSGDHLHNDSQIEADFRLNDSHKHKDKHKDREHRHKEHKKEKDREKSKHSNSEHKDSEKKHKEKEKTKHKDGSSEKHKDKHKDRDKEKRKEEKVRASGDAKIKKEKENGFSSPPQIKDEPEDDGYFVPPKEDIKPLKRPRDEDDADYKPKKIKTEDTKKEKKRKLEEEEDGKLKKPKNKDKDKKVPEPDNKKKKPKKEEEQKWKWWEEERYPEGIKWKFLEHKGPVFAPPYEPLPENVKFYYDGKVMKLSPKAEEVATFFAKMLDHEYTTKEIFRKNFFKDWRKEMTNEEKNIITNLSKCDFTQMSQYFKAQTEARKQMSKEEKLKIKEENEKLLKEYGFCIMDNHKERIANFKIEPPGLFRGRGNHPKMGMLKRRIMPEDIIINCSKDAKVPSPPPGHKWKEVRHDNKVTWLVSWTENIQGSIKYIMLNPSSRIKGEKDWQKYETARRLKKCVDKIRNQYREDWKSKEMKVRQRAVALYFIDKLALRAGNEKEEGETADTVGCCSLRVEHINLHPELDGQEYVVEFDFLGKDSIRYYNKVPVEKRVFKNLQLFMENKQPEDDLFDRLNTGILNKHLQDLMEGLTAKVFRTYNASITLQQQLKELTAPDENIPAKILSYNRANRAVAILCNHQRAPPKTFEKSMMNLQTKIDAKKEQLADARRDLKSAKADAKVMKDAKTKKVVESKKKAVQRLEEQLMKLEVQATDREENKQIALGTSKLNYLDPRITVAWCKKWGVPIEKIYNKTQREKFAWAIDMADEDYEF

KBM5 [3] = assay: Induction of apoptosis in human KBM5 cells expressing T315I mutant assessed as increase in Bcr-Abl expression at 1 to 10 uM measured after 24 hrs by western blot analysis; format: functional, cell-based; conditions: dose 1-10 µM
U-87 MG [4] = assay: Antitumor activity against human U-87MG cells xenografted in BALB/c nu/nu mouse assessed as reduction in CD133 marker expression at 25 mg/kg, ip administered every 2 days for 35 days by DAPI staining based immunofluorescence analysis; format: functional, organism-based; conditions: U-87MG ATCC, time 35.0 day
KBM5 [5] = assay: Induction of apoptosis in human KBM5 cells expressing T315I mutant assessed as decrease in […] expression at 1 to 10 uM measured after 24 hrs by Western blot analysis; format: functional, cell-based; conditions: dose 1-10 µM
U-87 MG [6] = assay: Antitumor activity against human U-87MG cells xenografted in BALB/c nu/nu mouse assessed as reduction in tumor weight at 25 mg/kg, ip administered every 2 days for 35 days; format: functional, organism-based; conditions: U-87MG ATCC, time 35.0 day
SW480 = assay: Cytotoxicity against human SW480 cells assessed as cell growth inhibition measured after 48 hrs by XTT dye based assay; format: functional; conditions: SW480, 48 h
KBM5 [7] = assay: Potentiation of ponatinib-induced apoptosis human KBM5 cells assessed as increase in apoptotic cells at 5 nM measured after 48 hrs by annexin V staining based flow cytometry analysis; format: functional, cell-based
U-87 MG [8] = assay: Antitumor activity against human U-87MG cells xenografted in BALB/c nu/nu mouse assessed as reduction in Bcl2 protein expression at 25 mg/kg, ip administered every 2 days for 35 days by DAPI staining based immunofluorescence analysis; format: functional, organism-based; conditions: U-87MG ATCC, time 35.0 day
KBM5 [9] = assay: Cytotoxicity against Imatinib mesylate sensitive wild-type human KBM5 cells assessed as cell growth inhibition measured after 48 hrs by MTT assay; format: functional, cell-based; conditions: KBM5, 48 h
Tubulin (Homo sapiens) = Tubulin (Homo sapiens) (UniProt P68371+Q9H4B7+P0DPH7+P68366+Q13509+Q71U36+P04350+Q3ZCM7+P07437+P68363+Q9BQE3+Q6PEY2+Q13885+Q9BVA1+Q9BUF5); assay: Inhibition of [3H]Colchicine binding to tubulin (unknown origin) at 1 uM measured after 10 mins by DEAE-Cellulose filter method relative to control; format: protein-complex assay

COc1cc(C(=O)c2cn(-c3ccc(C)cc3)cc2-c2ccsc2)cc(OC)c1OC
pIC50 (KBM5 [1]): 8.06 | inhibition [2]: inactive | Activity (KBM5 [3]): Active | Activity (U-87 MG [4]): Active | Activity (KBM5 [5]): Active | Activity (U-87 MG [6]): Active | pIC50 (SW480): 6.18 | Activity (KBM5 [7]): Active | Activity (U-87 MG [8]): Active | pIC50 (KBM5 [9]): 8.09 | inhibition (Tubulin (Homo sapiens)): 71%
